Key:
[1] = Cytotoxicity in mock-infected MT-4 cells (MTT); type: cell-based; conditions: human, read-out: CC50 in MT4-IIIB (μm)
Method: A rapid and automated assay procedure was used for the in vitro evaluation of anti-HIV agents. An HTLV-1 transformed T4-cell line MT-4, which was previously shown to be highly susceptible to and permissive for HIV infection, served as the target cell line. Inhibition of the HIV-induced cytopathogenic effect was used as the end point. The viability of both HIV-and mock-infected cells was assessed spectrophotometrically via in situ reduction of 3-(4,5-dimethylthiazol-2-yl)-2,5-diphenyltetrazolium bromide (MTT). The 50% cytotoxic concentration (CC50 in μg/ml) was defined as the concentration of compound that reduced the absorbance of the mock-infected control sample by 50%. The percent protection achieved by the compound in HIV-infected cells was calculated by the following formula: […]
Examples of inhibition of cell proliferation by particular compounds of formula (I) can be found by looking at the respective CC50 values in the MT-4 cell line.
Cells: MT-4 cells (Miyoshi et al., 1982) were grown and maintained in RPMI 1640 medium supplemented with 10% heat-inactivated fetal calf serum, 2 mM I-glutamine, 0.1% sodium bicarbonate, and 20 æg of gentamicin per ml.

[2] = biological target: T1, His6-tagged HIV-1 integrase / flag-LEDGF/p75 interaction (Human immunodeficiency virus type 1 group M subtype B, UniProt P04585); experiment: AlphaScreen assay of LEDGF-integrase interaction inhibition; type: binding; conditions: for IC50: compounds tested from 0.1 up to 100 μM; for inhibition at 100 µM: read-out: % inhibition at 100 μM in IN-LEDGF alphascreen (values marked *)
T1 construct: His6-tagged HIV-1 integrase; made in house
Method: Alphascreen Assay to Measure the LEDGF-Integrase Interaction Inhibitory Activity of Compounds of the Invention
The AlphaScreen assay was performed according to the manufacturer's protocol (Perkin Elmer, Benelux). Reactions were performed in 25 μl final volume in 384-well Optiwell™ microtiter plates (Perkin Elmer). The reaction buffer contained 25 mM Tris-HCl (pH 7.4), 150 mM NaCl, 1 mM MgCl2, 0.01% (v/v) Tween-20 and 0.1% (w/v) bovine serum albumin. His6-tagged integrase (300 nM final concentration) was incubated with the compounds for 30 min at 4° C. The compounds were added at varying concentrations spanning a wide range from 0.1 up to 100 μM. Afterwards 100 nM flag-LEDGF/p75 was added and incubation was prolonged for an additional hour at 4° C. Subsequently 5 μl of Ni-chelate-coated acceptor beads and 5 μl anti-flag donor beads were added to a final concentration of 20 μg/ml of both beads. Proteins and beads were incubated for 1 h at 30° C. in order to allow association to occur. Exposure of the reaction to direct light was omitted as much as possible and the emission of light from the acceptor beads was measured in the EnVision plate reader (Perkin Elmer, Benelux) and analyzed using the EnVision manager software. IN/DNA binding was analyzed in a similar setting using His6-tagged integrase (1 μM final concentration) and an oligodeoxynucleotide mimicking the IN ELISA oligonucleotide substrate (30 nM final concentration). Counterscreens with JPO2 or PogZ, respectively, were essentially performed as described previously.
Expression and purification of recombinant proteins: His6-tagged HIV-1 integrase, 3×flag-tagged LEDGF/p75, MBP-JPO2 and MBP-PogZ were purified for AlphaScreen applications as described previously 23,25,56.

HIV (MT4-IIIB) = experiment: Anti-HIV activity: inhibition of HIV-induced cytopathogenic effect in MT-4 cells (MTT); type: cell-based; conditions: Human immunodeficiency virus 1, IIIB

| Structure (SMILES) | CC50 [1] | IC50 [2] | EC50 (HIV (MT4-IIIB)) | inhibition at 100 µM [2] |
| --- | --- | --- | --- | --- |
| CCCC(C(=O)O)c1c(C)nc(N(C)C)nc1-c1ccccc1 (stereo not drawn) [cpd 2] | 164 µM | 36.7 µM | – | – |
| CCCC(C(=O)O)c1c(C)nc(/C=C/c2ccccc2)nc1-c1ccccc1 (stereo not drawn) [cpd 6] | 98.7 µM | 45.6 µM | – | – |
| CCCC(C(=O)O)c1c(C)nc(-c2ccc(C)cc2)nc1-c1ccc(C)cc1 (stereo not drawn) [cpd 10] | 110 µM | 30.9 µM | 35.9 µM | – |
| CCCC(C(=O)O)c1c(C)nc(N(C)C2CCCCC2)nc1-c1ccc(C)cc1 (stereo not drawn) [cpd 12] | 81.8 µM | 25.2 µM | 48.3 µM | – |
| CCCC(C(=O)O)c1c(C)nc(-c2ccccc2)nc1-c1ccc(C)cc1 (stereo not drawn) [cpd 14] | 120 µM | 22.1 µM | 23.4 µM | – |
| CCCC(C(=O)O)c1c(C)nc(-c2ccccc2Cl)nc1-c1ccccc1 (stereo not drawn) [cpd 16] | > 250 µM | – | 152 µM | – |
| CCCC(C(=O)O)c1c(C)nc(-c2ccccc2Cl)nc1-c1ccc(C)cc1 (stereo not drawn) [cpd 18] | 125 µM | 89.9 µM | – | – |
| CCCC(C(=O)O)c1c(C)nc(N2CCCCC2)nc1-c1ccccc1 (stereo not drawn) [cpd 20] | 120 µM | 12.5 µM | 15.9 µM | – |
| CCCC(C(=O)O)c1c(C)nc(N2CCCCC2)nc1-c1ccc(C)cc1 (stereo not drawn) [cpd 22] | 100 µM | 4.74 µM | 9.16 µM | – |
| CCCC(C(=O)O)c1c(C)nc(-c2ccccc2)nc1-c1ccccc1 (stereo not drawn) [cpd 24] | > 125 µM | – | 80 µM | – |
| CCCC(C(=O)O)c1c(C)nc(-c2ccccc2)nc1-c1cccc(O)c1 (stereo not drawn) [cpd 26] | > 125 µM | – | 70.9 µM | – |
| CCCC(C(=O)O)c1c(C)nc(N2CCCC2)nc1-c1ccc(C)cc1 (stereo not drawn) [cpd 30] | 143 µM | 4.61 µM | 16.1 µM | – |
| CCCC(C(=O)O)c1c(C)nc(N2CCN(C)CC2)nc1-c1ccc(C)cc1 (stereo not drawn) [cpd 32] | > 250 µM | 53.7 µM | – | – |
| CCCC(C(=O)O)c1c(C)nc(N2CC(C)CC(C)C2)nc1-c1ccc(C)cc1 (stereo not drawn) [cpd 34] | 57 µM | 17.5 µM | – | – |
| CCCC(C(=O)O)c1c(C)nc(N2CCCCCC2)nc1-c1ccc(C)cc1 (stereo not drawn) [cpd 36] | 58 µM | 11.2 µM | – | – |
| CCCC(C(=O)O)c1c(C)nc(N2CCCC(C(=O)NCC(C)C)C2)nc1-c1ccc(C)cc1 (stereo not drawn) [cpd 38] | 144 µM | 10.9 µM | 5.97 µM | – |
| CCCC(C(=O)O)c1c(C)nc(N2CCc3ccccc3C2)nc1-c1ccc(C)cc1 (stereo not drawn) [cpd 42] | 26 µM | 17.3 µM | – | – |
| CCCC(C(=O)O)c1c(C)nc(N2CCCN(Cc3ccccc3)CC2)nc1-c1ccc(C)cc1 (stereo not drawn) [cpd 44] | 7 µM | 11 µM | – | – |
| CCCC(C(=O)O)c1c(C)nc(N2CCCC(c3nc(C(C)C)no3)C2)nc1-c1ccc(C)cc1 (stereo not drawn) [cpd 46] | 42 µM | 80.8 µM | – | – |
| CCCC(C(=O)O)c1c(C)nc(N2CCCC(Oc3ccccc3)C2)nc1-c1ccc(C)cc1 (stereo not drawn) [cpd 48] | 25 µM | 9.49 µM | – | – |
| CCCC(C(=O)O)c1c(C)nc(N2CCCC(c3ccccc3)C2)nc1-c1ccc(C)cc1 (stereo not drawn) [cpd 50] | 28 µM | 82.2 µM | – | – |
| CCCC(C(=O)O)c1c(C)nc(N2CC[C@H](N(C)C)C2)nc1-c1ccc(C)cc1 (stereo partly drawn) [cpd 52] | 101 µM | 3.62 µM | – | – |
| CCCC(C(=O)O)c1c(C)nc(N2CCC(NC(=O)c3ccccc3)CC2)nc1-c1ccc(C)cc1 (stereo not drawn) [cpd 54] | 67 µM | 3.9 µM | – | – |

| Structure (SMILES) | CC50 [1] | IC50 [2] | EC50 (HIV (MT4-IIIB)) | inhibition at 100 µM [2] |
| --- | --- | --- | --- | --- |
| CCCC(C(=O)O)c1c(C)nc(-c2ccccc2)nc1N1CCN(C)CC1 (stereo not drawn) [cpd 64] | > 250 µM | – | 197 µM | – |
| CCCC(C(=O)O)c1c(C)nc(-c2ccccc2)nc1-c1ccc(C)c(C)c1 (stereo not drawn) [cpd 66] | 120 µM | 28.3 µM | – | – |
| CCCC(C(=O)O)c1c(C)nc(-c2ccccc2)nc1-c1ccc2ccccc2c1 (stereo not drawn) [cpd 68] | 53 µM | – | – | 61% |
| CCCC(C(=O)O)c1c(C)nc(-c2ccccc2)nc1-c1ccc2c(ccn2C)c1 (stereo not drawn) [cpd 74] | 129 µM | – | – | 46% |
| CCCC(C(=O)O)c1c(C)nc(-c2ccccc2)nc1N1CCc2ccccc2C1 (stereo not drawn) [cpd 76] | 74 µM | 93 µM | – | – |
| CCCC(C(=O)O)c1c(C)nc(-c2ccccc2)nc1Oc1ccccc1 (stereo not drawn) [cpd 78] | 102 µM | – | – | 58% |
| CCCC(C(=O)O)c1c(C)nc(-c2ccccc2)nc1-c1ccc2c(c1)OCCN2C (stereo not drawn) [cpd 86] | 118 µM | – | – | 46% |
| CCCC(C(=O)O)c1c(C)nc(-c2ccccc2)nc1-c1ccc2sccc2c1 (stereo not drawn) [cpd 88] | 121 µM | 66.7 µM | – | – |
| CCCC(C(=O)O)c1c(C)nc(-c2ccccc2)nc1-c1ccc2c(c1)CCCO2 (stereo not drawn) [cpd 90] | 125 µM | 61.9 µM | – | – |
| CCCC(C(=O)O)c1c(C)nc(-c2ccccc2)nc1-c1ccc2ccn(C)c2c1 (stereo not drawn) [cpd 92] | 113 µM | – | – | 51% |
| CCCC(C(=O)O)c1c(C)nc(-c2ccccc2)nc1-c1ccc2[nH]c(=O)[nH]c2c1 (stereo not drawn) [cpd 100] | 96 µM | 70.8 µM | – | – |
| CCCC(C(=O)O)c1c(C)nc(-c2ccccc2)nc1-c1ccc(C(C)C)cc1 (stereo not drawn) [cpd 106] | 32 µM | 56.6 µM | – | – |
| CCCC(C(=O)O)c1c(C)nc(-c2ccccc2)nc1-c1ccc(C(F)(F)F)cc1 (stereo not drawn) [cpd 108] | 47 µM | 100 µM | – | – |
| CCCC(C(=O)O)c1c(C)nc(-c2ccccc2)nc1-c1ccc(Cl)cc1OC (stereo not drawn) [cpd 110] | 94 µM | – | – | 40% |
| CCCC(C(=O)O)c1c(C)nc(-c2ccccc2)nc1Cc1ccccc1 (stereo not drawn) [cpd 117] | > 250 µM | 6.1 µM | – | – |
| CCCC(C(=O)O)c1c(C)nc(-c2ccccc2)nc1-c1ccc(C)cc1OC (stereo not drawn) [cpd 120] | 124 µM | – | – | 48% |
| Cc1ccc(-c2nc(N3CCCCC3)nc(C)c2C(Cc2ccccc2)C(=O)O)cc1 (stereo not drawn) [cpd 126] | 67 µM | 27 µM | – | – |
| CCCC(C(=O)O)c1c(C)nc(N2CCCCC2)nc1-c1cc(F)c(F)cc1F (stereo not drawn) [cpd 142] | 79 µM | 50.5 µM | – | – |
| Cc1ccc(-c2nc(N3CCCCC3)nc(C)c2C(OC(C)(C)C)C(=O)O)cc1 (stereo not drawn) [cpd 154] | 118 µM | – | 1.06 µM | – |
| CCCC(C(=O)O)c1c(C)nc(-c2ccccc2O)nc1-c1ccc(C)cc1 (stereo not drawn) [cpd 158] | 119 µM | – | 17.8 µM | – |
| CCCC(C(=O)O)c1c(C)nc(-c2cnn(C)c2)nc1-c1ccc(C)cc1 (stereo not drawn) [cpd 162] | > 250 µM | – | 72.1 µM | – |
| CCCC(C(=O)O)c1c(C)nc(NCc2ccccc2)nc1-c1ccc(C)cc1 (stereo not drawn) [cpd 168] | 128 µM | – | 23.9 µM | – |
| CCCC(C(=O)O)c1c(C)nc(NCC(C)(C)C)nc1-c1ccc(C)cc1 (stereo not drawn) [cpd 174] | 155 µM | – | 25 µM | – |
